According to patent US20220332836A1, “A METHOD FOR PREVENTING HUMAN VIRUS ASSOCIATED DISORDERS IN PATIENTS” (NOVARTIS AG, priority 2019, published 2022):

How the values were obtained:
[1] = test system: PBMC incubated with EBV supernatant; experiment: EBV regression assay with PBMC; type: cell-based, human
Experimental: Buffy coats from six healthy volunteers (18-001 to 18-006) were received from Blutspendezentrum Bern. Peripheral blood mononuclear cells (PBMC) were isolated using LeucoSep tubes following manufacturer's instructions, counted with TC20 and adjusted in cell culture medium (Medium, buffers and reagents). All conditions (see Table 3-2) were run in five replicates in 96-well U-bottom plates and contained 2×10^5 cells/well. PBMC were incubated for 10-15 minutes at 37° C. before adding cell culture medium containing EBV-supernatant and transferrin (see Medium, buffers and reagents). […] Cell pellets were stained and analyzed by flow cytometry (FACS staining procedure).
In FIG. 1, the gating strategy is shown.

[2] = test system: EBV-seronegative EBV-B cell/T cell co-cultures; experiment: EBV-B cell/T cell co-culture, EBV-seronegative donors; type: cell-based, human
[3] = test system: EBV-seropositive EBV-B cell/T cell co-cultures; experiment: EBV-B cell/T cell co-culture, EBV-seropositive donors
[4] = target: T1, human CD40 (human, UniProt P25942 21-193, limits assumed); experiment: method not stated
T1 construct: also called tumor necrosis factor receptor superfamily member 5
T1 sequence (P25942 21-193 limits assumed): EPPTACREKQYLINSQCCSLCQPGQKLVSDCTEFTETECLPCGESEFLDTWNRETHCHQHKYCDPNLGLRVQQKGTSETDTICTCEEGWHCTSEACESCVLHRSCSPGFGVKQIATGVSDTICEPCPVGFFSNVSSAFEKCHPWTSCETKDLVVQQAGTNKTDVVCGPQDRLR

[5] = test system: NK cell-depleted PBMC cultures; experiment: EBV regression assay, complete or NK cell-depleted PBMC; type: cell-based, human; conditions: 14 days
Text: (§1) FIG. 16 provides CD3^+ T cell counts from the NK cell-depleted PBMC regression assay after 14 days of culture measured by flow cytometry. Antibodies (in μg/mL) and CsA (in μM) were given in combination with EBV supernatants (except the negative control=medium w/o EBV). Dotted horizontal line was set to the condition ‘medium+EBV’. Data are shown as mean+SEM (n=4).
as §1, with “17” for “16”, “CD19^+ B cell counts from the PBMC regression assay after 14 days of culture measured by flow cytometry. Antibodies (in μg/mL) and CsA (in μM) were given in combination with EBV supernatants (except the negative control=medium w/o EBV). Dotted horizontal line was set to the condition ‘medium+EBV’. Data are shown as mean+SEM (n=4); and CD19^+ B” for “CD3^+ T”
All conditions except ‘medium w/o EBV’ were incubated with EBV supernatant and respective compound or antibodies. […] Looking at the CD19+ B cell proliferation (FIG. 3), there was an obvious increase in CD19+ B cell counts when PBMC were incubated with EBV supernatant compared to PBMC cultured with medium only (medium w/o EBV). […]

[6] = 14 days, CsA 0.1, 1 μM, Belatacept 10, 50 μg/mL, CFZ533, hIgG1 10-200 μg/mL, vs medium+EBV
[7] = 10-200 μg/mL, priming, recall, priming and recall, 11 days

Belatacept: CTLA4-Ig fusion protein; blocks CD80/CD86 and thereby inhibits T cell costimulation
CD3+ T cell counts [1, 6]: to a lesser degree than with CsA | CD19+ B cell counts [1, 6]: increase | T cell activity (resulting in over-growth of in vitro immortalized cells) ([1]; EBV regression assay): reduced | CD4+ T cell proliferation, differences between the four doses ([2]; 10, 50, 100 and 200 μg/mL): no evident differences | CD4+ T cell proliferation ([2]; 10-200 μg/mL, all three conditions): reduced | CD3+ T cell proliferation [2, 7]: reduced | CD8+ T cell proliferation ([2]; 10 and 50 μg/mL, recall only and priming and recall): only a reducing effect | CD3+ T cell proliferation ([2]; 100 and 200 μg/mL, priming and recall condition): only a reducing effect | CD3+ T cell proliferation ([2]; 100 and 200 μg/mL, priming or recall only condition): only minor | CD8+ T cell proliferation ([2]; 100 and 200 μg/mL, priming phase only): increased | CD3+ T cell proliferation, 10 and 50 μg/mL versus 100 and 200 μg/mL ([2]; all three conditions): slightly stronger but not significant suppression pattern | CD3+ T cell proliferation [3, 7]: reduced | CD4+ T cell proliferation [3, 7]: reduced | CD3+ T cell proliferation ([3]; 100 and 200 μg/mL): only an reducing effect on the T cell proliferation at the ‘priming and recall’ phase | CD4+ T cell proliferation ([3]; 100 and 200 μg/mL, priming and recall phase): robust reducing effect | CD3+ T cell proliferation, 10 and 50 μg/mL versus 100 and 200 μg/mL ([3]; all three conditions): slightly stronger but not significant suppression pattern | CD4+ T cell proliferation, 10 and 50 μg/mL versus 100 and 200 μg/mL ([3]; all three conditions): slightly stronger but not significant suppression pattern | EBV-mediated T cell proliferation and IFNγ secretion in presence of EBV-B cells ([3]; co-culture system, EBV-B cells sero-positive and sero-negative): reduced

B1: mAb1 (antibody, human IgG1, kappa, N297A, V domains shown)
VH: QVQLVESGGGVVQPGRSLRLSCAASGFTFSSYGMHWVRQAPGKGLEWVAVISYEESNRYHADSVKGRFTISRDNSKITLYLQMNSLRTEDTAVYYCARDGGIAAPGPDYWGQGTLVTVSS
VL: DIVMTQSPLSLTVTPGEPASISCRSSQSLLYSNGYNYLDWYLQKPGQSPQVLISLGSNRASGVPDRFSGSGSGTDFTLKISRVEAEDVGVYYCMQARQTPFTFGPGTKVDIRR
notes: also called CFZ533; Iscalimab
Kd [4]: 0.3 nM

B2: HCD122: a depleting CD40 mAb as positive control (antibody, chains of the INN, looked up, V domains shown)
VH: B1 VH
VL: DIVMTQSPLSLTVTPGEPASISCRSSQSLLYSNGYNYLDWYLQKPGQSPQVLISLGSNRASGVPDRFSGSGSGTDFTLKISRVEAEDVGVYYCMQARQTPFTFGPGTKVDIR
CD19+ B cell counts [5]: did deplete B cells
